Experimental data reported in PMC7376718, “Flavonoids isolated from the South African weed Chromolaena odorata (Asteraceae) have pharmacological activity against uropathogens” (BMC Complementary Medicine and Therapies, 2020).
Values after ≈ are worked out from the molar mass of the structure shown. Read-outs that look alike come from different tables or passages of the source. One block for each compound: values may come before it.

Assays:
[1] = test system: Escherichia coli (ATCC 25922), E. coli (1); test: MIC, serial microdilution with INT; format: cell-based; details: for MIC: Escherichia coli, ATCC25922, E. coli (1), read-out: Minimum inhibitory concentration
From the text: (§1) The cultures used were Escherichia coli (American Type Culture Collection, ATCC 25922) labelled as 1, E. coli isolates (B1989/17 and B1962/17) labelled as 2 and 3 from equine urine, collected from the Department of Veterinary Tropical Diseases, Faculty of Veterinary Science, University of Pretoria, South Africa, Klebsiella pneumoniae isolate from commercial chicken eggs, Enterococcus faecalis (ATCC 29212), Pseudomonas aeruginosa (ATCC 27853), Staphylococcus aureus (ATCC 29213), Candida albicans from a Gouldian finch, Aspergillus fumigatus from a chicken and Cryptococcus neoformans from a cheetah. These microbial strains were maintained on MHA or SDA for bacteria and fungi respectively, while the isolates were maintained on blood agar.
(§2) Ten mg/mL of each fraction and 1 mg/mL of isolated compounds were prepared in 10% DMSO and tested against S. aureus, E. coli, K. pneumoniae, E. faecalis, P. aeruginosa, C. albicans, C. neoformans and A. fumigatus. Cultures were prepared by inoculating each microbial strain from prepared agar plates into sterilized MHB for bacterial and SDB for fungi in sterile McCartney bottles respectively. The inoculums were placed in an orbital shaker incubator. Bacterial strains were incubated at 37 °C for 18 h. Each bacterial culture was diluted in fresh MHB and the absorbance was measured at a wavelength of 560 nm using a microplate reader (Epoch Biotek). The readings were compared to a McFarland standard No. 1 correlating to approximately 3 × 10^8 cfu/mL). For fungi strains, cultures were incubated at 30 °C for 24 h (C. albicans), 72 h (C. neoformans) and 120 h (A. fumigatus) respectively. The resultant cells and spores were washed with sterile normal saline and absorbance was measured at a wavelength of 560 nm and turbidity was adjusted to a McFarland standard 1.This was further diluted in a 1:10 ratio in SDB to a turbidity of 5 × 10^5 cfu/mL. These diluted cultures (bacterial and fungi) were used for the screening following the serial microdilution method of Eloff.

[2] = test system: Staphylococcus aureus (ATCC 29213); test: MIC, serial microdilution with INT; format: cell-based; details: ATCC29213, S. aureus, read-out: Minimum inhibitory concentration
From the text: as §1, §2

[3] = test system: E. coli (B1962/17) isolate from equine urine, E. coli (3); test: MIC, serial microdilution with INT; format: cell-based; details: Escherichia coli, read-out: Minimum inhibitory concentration
From the text: as §1, §2

[4] = test system: Klebsiella pneumoniae isolate from commercial chicken eggs; test: MIC, serial microdilution with INT; format: cell-based; details: K. pneumoniae; for MIC: Klebsiella pneumoniae, read-out: Minimum inhibitory concentration
From the text: as §1, §2

[5] = test system: E. coli (B1989/17) isolate from equine urine, E. coli (2); test: MIC, serial microdilution with INT; format: cell-based; details: Escherichia coli, read-out: Minimum inhibitory concentration
From the text: as §1, §2

[6] = test system: S. aureus, E. coli (1), E. coli (2), E. coli (3), K. pneumoniae; test: Mean MIC over the bacterial strains; format: cell-based; details: mean over the five bacterial strains of Table 3
From the text: as §1, §2

Cytotoxicity, MTT assay = format: cell-based; details: human, C3A cells, read-out: Lethal concentration (LC50)
Description: Different concentrations of the compounds ranging from 0.003 to 0.2 mg/mL were tested for cytotoxicity against three cell lines; Vero monkey kidney, C3A and Caco2. Vero cells were grown and maintained in MEM, supplemented with 0.1% gentamicin and 5% foetal calf serum, while Caco2 and C3A cells were grown and maintained in DMEM supplemented with 10% foetal calf serum, 1% non-essential amino acids and 1% penicillin-streptomycin. All cells were incubated in a 5% CO2 incubator at 37 °C. Doxorubicin chloride was used as positive control while 10% DMSO used in dissolving the test samples was used as the negative control. The 3-(4,5-dimethylthiazol)-2,5-diphenyl tetrazolium bromide (MTT) assay described by Mosmann [50] with modification by McGaw et al. [51] was used to determine the cytotoxicity of the test samples. The lethal concentration (LC50) value was calculated as the concentration of tested sample resulting in a 50% reduction of absorbance compared to untreated cells.

in vitro [7] = test: in vitro
Description: (§3) Different concentrations of the compounds ranging from 0.003 to 0.2 mg/mL were tested for cytotoxicity against three cell lines; Vero monkey kidney, C3A and Caco2. Vero cells were grown and maintained in MEM, supplemented with 0.1% gentamicin and 5% foetal calf serum, while Caco2 and C3A cells were grown and maintained in DMEM supplemented with 10% foetal calf serum, 1% non-essential amino acids and 1% penicillin-streptomycin. All cells were incubated in a 5% CO2 incubator at 37 °C. Doxorubicin chloride was used as positive control while 10% DMSO used in dissolving the test samples was used as the negative control. The 3-(4,5-dimethylthiazol)-2,5-diphenyl tetrazolium bromide (MTT) assay described by Mosmann with modification by McGaw et al. was used to determine the cytotoxicity of the test samples. The lethal concentration (LC50) value was calculated as the concentration of tested sample resulting in a 50% reduction of absorbance compared to untreated cells. Selectivity index (SI) values were calculated against the MIC using the formula: […]

in vitro [8] = test: in vitro; remark: listed apart in the source
Description: as §3

[9] = test system: Aspergillus fumigatus from a chicken; test: MIC, serial microdilution with INT; format: cell-based; details: for MIC: Aspergillus fumigatus, read-out: Minimum inhibitory concentration
From the text: as §1, §2

[10] = test system: Enterococcus faecalis (ATCC 29212); test: MIC, serial microdilution with INT; format: cell-based; details: ATCC29212, E. faecalis, read-out: Minimum inhibitory concentration
From the text: as §1, §2

[11] = test system: Pseudomonas aeruginosa (ATCC 27853); test: MIC, serial microdilution with INT; format: cell-based; details: ATCC27853, P. aeruginosa, read-out: Minimum inhibitory concentration
From the text: as §1, §2

[12] = test system: Cryptococcus neoformans from a cheetah; test: MIC, serial microdilution with INT; format: cell-based; details: C. neoformans, read-out: Minimum inhibitory concentration
From the text: as §1, §2

[13] = test system: Candida albicans from a Gouldian finch; test: MIC, serial microdilution with INT; format: cell-based; details: C. albicans, read-out: Minimum inhibitory concentration
From the text: as §1, §2

[14] = test system: C. neoformans and A. fumigatus; test: Mean MIC over the fungal isolates; format: cell-based
From the text: as §1, §2

[15] = test system: selected microbial strains; test: MIC summarised over the selected microbial strains; format: cell-based; details: summary over bacterial and fungal strains
From the text: as §1, with “These microbial strains were maintained on MHA or SDA for bacteria and fungi respectively, while the isolates were maintained on blood agar.” left out
Ten mg/mL of each fraction and 1 mg/mL of isolated compounds were prepared in 10% DMSO and tested against S. aureus, E. coli, K. pneumoniae, E. faecalis, P. aeruginosa, C. albicans, C. neoformans and A. fumigatus. […] Each bacterial culture was diluted in fresh MHB and the absorbance was measured at a wavelength of 560 nm using a microplate reader (Epoch Biotek). The readings were compared to a McFarland standard No. 1 correlating to approximately 3 × 10^8 cfu/mL). […] The resultant cells and spores were washed with sterile normal saline and absorbance was measured at a wavelength of 560 nm and turbidity was adjusted to a McFarland standard 1.This was further diluted in a 1:10 ratio in SDB to a turbidity of 5 × 10^5 cfu/mL. […]

Caco2 cells = test: in vitro; details: Caco2
Description: as §3

S. aureus = test system: S. aureus; parameters: method as in earlier work; details: ref [70] Teffo et al.; cited from earlier work
E. coli = test system: E. coli; parameters: method as in earlier work; details: ref [70] Teffo et al.; cited from earlier work

SMILES: O=C(O)c1cn(C2CC2)c2cc(N3CCNCC3)c(F)cc2c1=O [Ciprofloxacin, ciprofloxacin, reference compound]
MIC [1]: 2 µg/mL (≈ 6.04 µM)
MIC [2]: 63 µg/mL (≈ 190 µM)
MIC [3]: 1 µg/mL (≈ 3.02 µM)
Minimum inhibitory concentration [4]: 50 µg/mL (≈ 151 µM)
MIC [4]: 50 µg/mL (≈ 151 µM)
MIC [5]: 0.05 µg/mL (≈ 0.151 µM)
MIC [6]: 20 µg/mL (≈ 60.4 µM)

SMILES: COc1cccc2c1C(=O)c1c(O)c3c(c(O)c1C2=O)C[C@@](O)(C(=O)CO)C[C@@H]3O[C@H]1C[C@H](N)[C@H](O)[C@H](C)O1 [Doxorubicin, Doxorubicin chloride, reference compound]
CC50 (Cytotoxicity, MTT assay): 3.3 µg/mL

SMILES: CNC(C)C1CCC(N)C(OC2C(N)CC(N)C(OC3OCC(C)(O)C(NC)C3O)C2O)O1 (stereo not shown) [Gentamicin, gentamicin, reference compound]
CC50 (in vitro [7]): > 200 µg/mL
CC50 (in vitro [8]): > 200 µg/mL
Minimum inhibitory concentration ([1]; E. coli (1)): 16 µg/mL (≈ 33.5 µM)
MIC [1]: 20 µg/mL (≈ 41.9 µM)
MIC [2]: 8 µg/mL (≈ 16.8 µM)
MIC ([9]; 120 h): > 2500 µg/mL
MIC [3]: 8 µg/mL (≈ 16.8 µM)
MIC [10]: 500 µg/mL (≈ 1050 µM)
MIC [11]: 8 µg/mL (≈ 16.8 µM)
Minimum inhibitory concentration [4]: 250 µg/mL (≈ 523 µM)
MIC [4]: 500 µg/mL (≈ 1050 µM)
MIC [5]: 31 µg/mL (≈ 64.9 µM)
MIC [6]: 60 ± 110 µg/mL (≈ 126 µM)
Mean MIC [6]: 60 µg/mL

MIC ([9]; 48 h): 31 µg/mL (≈ 33.5 µM)
MIC ([9]; 72 h): 63 µg/mL (≈ 68.2 µM)
MIC ([9]; 120 h): 125 µg/mL (≈ 135 µM)
MIC ([12]; 72 h, 72 h): 125 µg/mL (≈ 135 µM)
MIC ([12]; 120 h, 120 h): 125 µg/mL (≈ 135 µM)
MIC ([13]; 24 h): 31 µg/mL (≈ 33.5 µM)
MIC ([13]; 48 h): 63 µg/mL (≈ 68.2 µM)
MIC ([14]; all time points of Table 3): 70 ± 60 µg/mL (≈ 75.8 µM)
Mean MIC ([14]; all time points of Table 3, listed as Amp B): 70 µg/mL
SMILES: C[C@@H]1[C@H](O)[C@@H](C)/C=C/C=C/C=C/C=C/C=C/C=C/C=C/[C@H](O[C@@H]2O[C@H](C)[C@@H](O)[C@H](N)[C@@H]2O)C[C@@H]2O[C@](O)(C[C@@H](O)C[C@@H](O)[C@H](O)CC[C@@H](O)C[C@@H](O)CC(=O)O[C@H]1C)C[C@H](O)[C@H]2C(=O)O [Amphotericin B, amphotericin B, reference compound]

SMILES: COc1ccc(-c2cc(=O)c3c(O)c(OC)c(O)cc3o2)cc1 [Compound 1, 5,7-dihydroxy-4′,6-dimethoxy-flavone]
MIC, range or verdict over the strains tested [15]: weak antimicrobial activity
MIC [1]: 250 µg/mL (≈ 795 µM)
MIC [2]: 250 µg/mL (≈ 795 µM)
Minimum inhibitory concentration ([9]; 48 h): good activity
MIC ([9]; 48 h): 63 µg/mL (≈ 200 µM)
MIC ([9]; 72 h): 250 µg/mL (≈ 795 µM)
MIC ([9]; 120 h): > 2500 µg/mL
MIC [3]: > 250 µg/mL
MIC ([12]; 48 h, 48 h): > 250 µg/mL
MIC ([12]; 72 h, 72 h): > 250 µg/mL
MIC [4]: 250 µg/mL (≈ 795 µM)
MIC [5]: > 250 µg/mL
MIC [6]: 250 µg/mL (≈ 795 µM)

SMILES: COc1ccc(-c2oc3cc(O)cc(O)c3c(=O)c2O)cc1 [Compound 4, 3,5,7-trihydroxy-4′-methoxyflavone]
MIC, range or verdict over the strains tested [15]: weak antimicrobial activity
CC50 (in vitro [7]): > 200 µg/mL
Selectivity index (LC50/MIC) (Caco2 cells; E. coli (1)): 1.544
Selectivity index (LC50/MIC) (Caco2 cells; S. aureus): 0.772
CC50 (in vitro [8]): 193 µg/mL (≈ 643 µM)
MIC [1]: 125 µg/mL (≈ 416 µM)
MIC [2]: 250 µg/mL (≈ 833 µM)
MIC ([9]; 48 h): 250 µg/mL (≈ 833 µM)
MIC ([9]; 72 h): > 250 µg/mL
MIC ([9]; 120 h): > 2500 µg/mL
MIC [3]: > 250 µg/mL
MIC ([12]; 48 h, 48 h): > 250 µg/mL
MIC ([12]; 72 h, 72 h): > 250 µg/mL
MIC [4]: > 250 µg/mL
MIC [5]: > 250 µg/mL
MIC / antibacterial activity (S. aureus): 250 µg/mL (≈ 833 µM)
MIC / antibacterial activity (E. coli): 125 µg/mL (≈ 416 µM)
